Reference: the NIST ThermoML archive (doi:10.1016/j.jct.2016.08.010)

Assay: xn = mol fraction of the nth substance listed
Details: 100 kPa, Liquid; for speed of sound: Frequency=3 MHz, Sing-around technique in a fixed-path interferometer; for mass density: Vibrating tube method

CCCCn1cc[n+](C)c1C.F[B-](F)(F)F [1-butyl-2,3-dimethylimidazolium tetrafluoroborate] + CCCCn1cc[n+](C)c1.F[B-](F)(F)F
Details	mass density, 293.15 K [kg/m3]	mass density, 298.15 K [kg/m3]	mass density, 303.15 K [kg/m3]	mass density, 308.15 K [kg/m3]	speed of sound, 293.15 K [m/s]	speed of sound, 298.15 K [m/s]	speed of sound, 303.15 K [m/s]	speed of sound, 308.15 K [m/s]
x1 = 0.0917	1198.6	1195.3	1192.4	1189.4	1587.2	1574.1	1562.2	1550
x1 = 0.1281	1197.1	1194	1191.4	1188.6	1590.7	1577.4	1565.4	1553.1
x1 = 0.1633	1195.8	1193	1190.4	1187.9	1594	1580.6	1568.4	1556
x1 = 0.2059	1194.4	1191.8	1189.5	1187.1	1597.8	1584.3	1572	1559.5
x1 = 0.2455	1193.3	1190.9	1188.6	1186.4	1601.3	1587.7	1575.3	1562.7
x1 = 0.2967	1192.2	1189.9	1187.8	1185.7	1605.7	1591.9	1579.5	1566.8
x1 = 0.3424	1191.3	1189.2	1187.1	1185.2	1609.5	1595.7	1583.1	1570.4
x1 = 0.3974	1190.6	1188.6	1186.6	1184.8	1613.9	1600.1	1587.4	1574.6
x1 = 0.4496	1190.2	1188.3	1186.3	1184.6	1618.1	1604.1	1591.5	1578.6
x1 = 0.4997	1190	1188.2	1186.2	1184.5	1622	1608	1595.2	1582.4
x1 = 0.5418	1190	1188.2	1186.2	1184.5	1625.2	1611.2	1598.4	1585.5
x1 = 0.5941	1190.1	1188.3	1186.4	1184.7	1629.1	1615.1	1602.2	1589.4
x1 = 0.6398	1190.3	1188.5	1186.7	1184.9	1632.5	1618.5	1605.6	1592.9
x1 = 0.6873	1190.6	1188.9	1187	1185.3	1636	1622	1609.1	1596.3
x1 = 0.7388	1191	1189.3	1187.4	1185.7	1639.9	1625.9	1612.9	1600.1
x1 = 0.7963	1191.6	1189.9	1187.9	1186.1	1644.1	1630.1	1617.1	1604.4
x1 = 0.8482	1192.1	1190.4	1188.4	1186.5	1648	1634	1621	1608.4
x1 = 0.8903	1192.6	1190.8	1188.7	1187	1651.2	1637.2	1624.2	1611.4
x1 = 1	1193.5	1191.8	1189.7	1187.9	1659.7	1645.7	1632.5	1619.8
